Measured values published in patent US11617726B2, “Method for preventing, treating, or ameliorating a microbial infection” (priority 2018, dated 2023).

Tested on: Acinetobacter baumannii isolates
Assay: Antimicrobial susceptibility test, disc diffusion method (CLSI M100-S24)
Format: cell-based
Set-up: key to Inhibition zone: “NZ” indicated that no zone of inhibition was observed
Conditions: for Inhibition zone: disc diffusion; for susceptibility category: AMX disc
Method: A total of 33 non-duplicate, non-consecutive clinical isolates of Multi-Drug Resistant (MDR) Acinetobacter baumannii were collected from burn wards (“AB1-AB33”). Acinetobacter baumannii ATCC BAA 747 and Pseudomonas aeruginosa ATCC 27853 were used as control strains. The isolates were stored at −80° C. in trypticase soy broth containing 20% glycerol.
Antimicrobial susceptibility tests of the collection of isolates were conducted using the disc diffusion method. The experiment was performed according to the recommendations and guidelines of Clinical Laboratory Standard Institutes (CLSI M100-S24; 2014). Clinical and Laboratory Standards Institute (CLSI), “Performance standards for antimicrobial susceptibility testing; twenty-fourth informational supplement,” Document M100-S24, Clinical and Laboratory Standards Institute (CLSI), Wayne, Pa., USA, 2014.
A panel of commercial antibiotic discs (Amoxicillin (AMX), Amoxicillin/clavulanic acid (AMX/CLA), Piperacillin (PIP), Piperacillin/Tazobactam (PIP/TAZ), Ceftazidime (CAZ), Cefotaxime (CTX), Cefepime (FEP), Cefoxitin (FOX), Aztreonam (ATM), Imipenem (IP), Gentamicin (GEN), Amikacin (AK), Neomycin (NEO), Levofloxacin (LEV), Chloramphenicol (CHL), Tetracycline (TET), sulfamethoxazole/trimethoprim (SUL/TRI) was used for susceptibility testing. All commercial antibiotic discs were purchased from BBL (Becton Dickinson, USA).
Forty grams of Mueller-Hinton Agar (MHA) were suspended in 1 Liter distilled water and then boiled to dissolve the powder completely. The medium was sterilized by autoclaving at 121° C. for 15 min. After autoclaving, the medium was cooled to 45° C. and 25 mL of molten agar media was poured into sterile Petri dishes (90 mm diameter) to give a depth of about 4 mm. The surface of the agar was dried to remove excess moisture before use. The plates were stored at 4-8° C. in sealed plastic bags if not used immediately.
The inoculum suspension was prepared by selecting three to five morphologically similar colonies from overnight growth (16-24 h of incubation) on blood agar medium. […] The suspension density was measured using a UV spectrophotometer calibrated with a 0.5 McFarland standard. The density of the suspension was adjusted to McFarland 0.5 by addition of saline or more microorganisms. The adjusted inoculum suspension was used within 60 min of preparation.
A sterile cotton swab was dipped into the bacterial suspension and the excess fluid was removed by turning the swab against the inside wall of the tube to avoid over-inoculation of plates. The inoculum was spread evenly over the entire surface of the agar plate by swabbing in three directions.
The predetermined panel of antimicrobial disks was applied firmly on the inoculated Mueller-Hinton agar surface within 15 min of inoculation of the plates by a disc dispenser device. A maximum of six disks were accommodated on a 90-mm circular plate.
Within 15 min of application of antimicrobial disks, the plates were inverted and incubated aerobically at 35-37° C. for 18-20 h.
After incubation, inhibition zones were measured at the point where no obvious growth is detected by the unaided eye when the plate is held about 30 cm from the eye. Inhibition zone diameters were measured to the nearest millimeter with a ruler. The plates were read from the back of the plate with reflected light against a dark background. Zone diameters were interpreted and categorized as susceptible “S”, intermediate “I”, or resistant “R” according to the CLSI clinical breakpoint tables (see Table 1 and Table 2).

CC(C)(O/N=C(\C(=O)N[C@@H]1C(=O)N2C(C(=O)[O-])=C(C[n+]3ccccc3)CS[C@H]12)c1csc(N)n1)C(=O)O [CAZ, Ceftazidime]
8 mm: Inhibition zone (isolate AB27) | Inhibition zone (isolate AB28) | Inhibition zone (isolate AB31) | Inhibition zone (isolate AB32)
9 mm: Inhibition zone (isolate AB5)
32 mm: Inhibition zone (isolate AB16)
28 mm: Inhibition zone (isolate AB6)
26 mm: Inhibition zone (isolate AB3)
17 mm: Inhibition zone (isolate AB2) | Inhibition zone (isolate AB25)
15 mm: Inhibition zone (isolate AB26)
22 mm: Inhibition zone (isolate AB33)
20 mm: Inhibition zone (isolate AB1)
21 mm: Inhibition zone (isolate AB4) | Inhibition zone (isolate AB9)
NZ: Inhibition zone (isolate AB7) | Inhibition zone (isolate AB8) | Inhibition zone (isolate AB10) | Inhibition zone (isolate AB11) | Inhibition zone (isolate AB12) | Inhibition zone (isolate AB13) | Inhibition zone (isolate AB14) | Inhibition zone (isolate AB15) | Inhibition zone (isolate AB18) | Inhibition zone (isolate AB19) | Inhibition zone (isolate AB20) | Inhibition zone (isolate AB21) | Inhibition zone (isolate AB22) | Inhibition zone (isolate AB23) | Inhibition zone (isolate AB24) | Inhibition zone (isolate AB29) | Inhibition zone (isolate AB30)
12 mm: Inhibition zone (isolate AB17)

CN(C)[C@@H]1C(O)=C(C(N)=O)C(=O)[C@@]2(O)C(O)=C3C(=O)c4c(O)cccc4[C@@](C)(O)[C@H]3C[C@@H]12 [TET, Tetracycline]
28 mm: Inhibition zone (isolate AB20) | Inhibition zone (isolate AB32)
25 mm: Inhibition zone (isolate AB25)
22 mm: Inhibition zone (isolate AB2) | Inhibition zone (isolate AB3)
8 mm: Inhibition zone (isolate AB27)
NZ: Inhibition zone (isolate AB1) | Inhibition zone (isolate AB5) | Inhibition zone (isolate AB6) | Inhibition zone (isolate AB10) | Inhibition zone (isolate AB11) | Inhibition zone (isolate AB12) | Inhibition zone (isolate AB13) | Inhibition zone (isolate AB16) | Inhibition zone (isolate AB26) | Inhibition zone (isolate AB31)
23 mm: Inhibition zone (isolate AB9) | Inhibition zone (isolate AB23)
26 mm: Inhibition zone (isolate AB8)
20 mm: Inhibition zone (isolate AB18) | Inhibition zone (isolate AB22) | Inhibition zone (isolate AB28) | Inhibition zone (isolate AB30)
21 mm: Inhibition zone (isolate AB4) | Inhibition zone (isolate AB7) | Inhibition zone (isolate AB17)
19 mm: Inhibition zone (isolate AB15) | Inhibition zone (isolate AB21) | Inhibition zone (isolate AB24) | Inhibition zone (isolate AB29)
17 mm: Inhibition zone (isolate AB19)
24 mm: Inhibition zone (isolate AB14) | Inhibition zone (isolate AB33)

CC1(C)S[C@@H]2[C@H](NC(=O)[C@H](N)c3ccc(O)cc3)C(=O)N2[C@H]1C(=O)O [AMX, Amoxicillin]
NZ: Inhibition zone (isolate AB1) | Inhibition zone (isolate AB2) | Inhibition zone (isolate AB3) | Inhibition zone (isolate AB4) | Inhibition zone (isolate AB5) | Inhibition zone (isolate AB6) | Inhibition zone (isolate AB7) | Inhibition zone (isolate AB8) | Inhibition zone (isolate AB9) | Inhibition zone (isolate AB10) | Inhibition zone (isolate AB11) | Inhibition zone (isolate AB12) | Inhibition zone (isolate AB13) | Inhibition zone (isolate AB14) | Inhibition zone (isolate AB15) | Inhibition zone (isolate AB16) | Inhibition zone (isolate AB17) | Inhibition zone (isolate AB18) | Inhibition zone (isolate AB19) | Inhibition zone (isolate AB20) | Inhibition zone (isolate AB21) | Inhibition zone (isolate AB22) | Inhibition zone (isolate AB23) | Inhibition zone (isolate AB24) | Inhibition zone (isolate AB25) | Inhibition zone (isolate AB26) | Inhibition zone (isolate AB27) | Inhibition zone (isolate AB29) | Inhibition zone (isolate AB30) | Inhibition zone (isolate AB33)
R (Resistant ≤13): susceptibility category (isolate AB1) | susceptibility category (isolate AB2) | susceptibility category (isolate AB3) | susceptibility category (isolate AB4) | susceptibility category (isolate AB5) | susceptibility category (isolate AB6) | susceptibility category (isolate AB7) | susceptibility category (isolate AB8) | susceptibility category (isolate AB9) | susceptibility category (isolate AB10) | susceptibility category (isolate AB11) | susceptibility category (isolate AB12) | susceptibility category (isolate AB13) | susceptibility category (isolate AB14) | susceptibility category (isolate AB15) | susceptibility category (isolate AB16) | susceptibility category (isolate AB17) | susceptibility category (isolate AB18) | susceptibility category (isolate AB19) | susceptibility category (isolate AB20) | susceptibility category (isolate AB21) | susceptibility category (isolate AB22) | susceptibility category (isolate AB23) | susceptibility category (isolate AB24) | susceptibility category (isolate AB25) | susceptibility category (isolate AB26) | susceptibility category (isolate AB27) | susceptibility category (isolate AB28) | susceptibility category (isolate AB29) | susceptibility category (isolate AB30) | susceptibility category (isolate AB31) | susceptibility category (isolate AB32) | susceptibility category (isolate AB33)
8 mm: Inhibition zone (isolate AB31) | Inhibition zone (isolate AB32)
9 mm: Inhibition zone (isolate AB28)
